Values of other authors in patent US20210147810A1, “SINGLE LUNG CELL-DERIVED ORGANOIDS” (Rutgers, The State University of New Jersey, priority 2017, published 2021).

System: PTPRT-mutant NSCLC
Settings: in vivo

CC(=O)c1cc2c(o1)C(=O)c1ccccc1C2=O [BBI608]
anti-tumor activity: effective anti-tumor activity
